By EC50 is commonly meant the concentration needed to bring the measured effect to its halfway point.

Experiment [1] relates to lean male mice. The experiment is described as follows: Oral glucose tolerance test (OGTT) in lean male mice. In kind it is in vivo, mouse. Particulars: for Glucose excursions following oral glucose administration: oral dosing, different doses, glucose 2 g/kg, vs vehicle; for Dose at which significantly improved glucose tolerance was observed: oral, OGTT lean male mice; for Calculated unbound effective concentration, Ce50: unbound concentration giving 50% decrease in blood glucose over time vs vehicle, turnover model. The protocol:
OGTT tests were performed in lean male mice (body weight 27-32g), randomized on body weight, fasted for 16 hours. An oral glucose load (2 g/kg) was administered 30 min (AZ13581837, 7 and 18 mg/kg) or 60 min (Metabolex-36, 10, 30 and 100 mg/kg) after oral dosing with the GPR120 agonists and blood glucose was measured at -30, 0, 10, 25, 40, 60 and 90 min post glucose administration. The specificity of Metabolex-36 was examined in male GPR120 null mice. The administration time for the GPR120 agonists was optimized depending on the pharmacokinetic profile of each compound, in order to maximize the plasma exposure of the compounds during the experiments.
For OGTT a turnover model with a log-linear drug function was used to model the glucose lowering effect determined as the effective concentration resulting in a 50% decrease in blood glucose over time (Ce50) compared to vehicle. All analyses were performed using Phoenix WinNonlin 6.4 (Certara, Princeton, NJ, USA). The area under the glucose excursion curve was calculated and used for statistical evaluation.

The subject of experiment [2] is STC-1 cells. Nature of the experiment: GLP-1 secretion from STC-1 cells. In kind it is cell-based, mouse. The note with it: 2 hours, active GLP-1, vs 0.1% DMSO. How it is done: STC-1 cells were cultured in DMEM (Invitrogen) supplemented with 10% horse serum (ThermoFisher Scientific), 2.5% FBS (Hyclone) and 1% Penicillin/Streptomycin in 96-well poly-D-Lysine coated plates to 80–90% confluence at 37°C, 5% CO2. Cells were washed and pre-incubated in assay buffer (HBSS with Ca^2+ and Mg^2+ containing 20 mM HEPES, 0.1% BSA (Sigma) and 20 nM sitagliptin (dipeptidyl peptidase 4 (DPP-4) inhibitor), for 30 min in 37°C. GPR120 agonists were added and cells were incubated for 2 hours in 37°C. DMSO (0.1%) was used as control. GLP-1 secretion was measured in the supernatants (GLP-1 active, Millipore) by fluorescence detection. Concentration of active GLP-1 was derived by interpolation from a GLP-1 standard curve.

The subject of experiment [3] is lean female mice. The experiment is described as follows: Intravenous glucose tolerance test (IVGTT) in lean female mice. The note with it: for Basal blood glucose: 4-hour fasted female mice, oral Metabolex-36 100 mg/kg or AZ13581837 35 mg/kg, vehicle 7.8±0.2 mM; for Acute insulin response (AIR): vs controls; for Acute insulin response (AIR) / Glucose elimination between 1 and 20 min / Time after iv glucose bolus up to which insulin levels were significantly elevated: Metabolex-36 100 mg/kg; for Acute insulin response (AIR) / Glucose elimination between 1 and 20 min: AZ13581837 35 mg/kg oral; for Time after iv glucose bolus up to which insulin levels were significantly elevated: oral pre-administration, AZ13581837 35 mg/kg. It counts as in vivo, mouse. The protocol:
Lean female mice (body weight 20–25 g), were randomized on body weight and fasted 4 hours prior to the IVGTT. Metabolex-36 (100 mg/kg) was administered orally 60 min and AZ13581837 (35mg/kg) 30 min before the IVGTT ([…]). Control mice were given vehicle (0.5% HPMC, 0.1% Tween-80) at corresponding time points. The specificity of AZ13581837 was examined in IVGTT in GPR120 null mice. GPR120 agonist doses were selected to reach plasma levels of at least 10 times over the in vitro EC50 value to achieve maximal activation of GPR120 (S2 Appendix). Thirty minutes prior to the glucose load, the mice were anaesthetised (20 mg/kg fluanisone/0.8 mg/kg fentanyl (Hypnorm®, Janssen, Beerse, Belgium) and 10 mg/kg midazolam (Dormicum®, Hoffman-LaRoche, Basel, Switzerland)) to allow for rapid blood sampling. The mice were kept at a heating pad to maintain body temperature.
In separate experiments, mice were pretreated with the GLP-1 receptor antagonist exendin 9–39 (30 nmol/kg, Bachem; intraperitoneally) alone or in combination with the GPR120 agonists, 15 min prior to the IVGTT. Insulin and glucose were measured 0, 1, 5, 10, 20 and 40 min after intravenous (iv) glucose administration. In separate groups of mice total GLP-1 levels were measured 60 min after oral administration of Metabolex-36 or 30 min after AZ13581837 and in corresponding vehicle (0.5% HPMC, 0.1% Tween-80) dosed mice. Blood samples were collected in EDTA coated tubes, centrifuged at 10000xg for 4 min, and plasma was separated and stored frozen until analyzed.
In the IVGTT, the acute insulin response (AIR) was calculated as the mean of suprabasal 1 and 5 min values, and the glucose elimination was quantified using the glucose elimination constant (KG) calculated as the slope of the logarithmic transformation of circulating glucose between 1 and 20 min after the glucose bolus. Multiple comparisons between the different groups were performed by one-way ANOVA. Tukey’s or Bonferroni’s post hoc test were used to calculate statistical differences between the groups. Significant statistical difference was considered at p<0.05. Data are presented as mean ± SEM.

The target of experiment [4] is T1, human GPR120 (Homo sapiens, UniProt Q5NUL3).
T1 construct: expressed in transfected cells
T1 sequence (Q5NUL3 1-361): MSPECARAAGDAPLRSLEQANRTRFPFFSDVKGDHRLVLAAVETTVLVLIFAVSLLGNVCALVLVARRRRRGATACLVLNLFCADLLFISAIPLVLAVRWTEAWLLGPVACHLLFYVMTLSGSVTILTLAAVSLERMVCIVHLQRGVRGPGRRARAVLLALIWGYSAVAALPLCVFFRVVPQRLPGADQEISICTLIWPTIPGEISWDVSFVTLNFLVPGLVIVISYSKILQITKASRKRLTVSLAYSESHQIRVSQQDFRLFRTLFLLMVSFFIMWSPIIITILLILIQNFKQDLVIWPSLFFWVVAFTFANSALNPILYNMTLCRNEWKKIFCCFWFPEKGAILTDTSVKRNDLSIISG
The experiment is described as follows: DMR (dynamic mass redistribution) assay in CHO-hGPR120 cells. It counts as cell-based. The note with it: for DMR response after Gαs inhibition: CHO-hGPR120 cells treated with CTX; for DMR response after Gαi inhibition: CHO-hGPR120 cells treated with PTX; for DMR response after Gαq inhibition: CHO-hGPR120 cells treated with QIC; for EC50: mean ± SEM.

Experiment [5] deals with T1, human GPR120. Nature of the experiment: β-arrestin recruitment (Tango) assay in U2OS-hGPR120 cells. It counts as cell-based. The protocol: U2OS-hGPR120 cells cultured in Freestyle medium (Invitrogen) were incubated for 5 hours with GPR120 agonists in 384-well Cell BIND plates (Corning) at 37°C, 95% humidity and 5% CO2. LiveBLAzer™ FRET B/G working solution (Invitrogen) was added and after 2 hours at room temperature fluorescence intensity (λex = 405 nm, λem = 530 and 460 nm) was detected using a Pherastar FS (BMG Labtech) according to the manufacturers protocol.
In general terms: Activated receptors often draw arrestin, which recruitment assays turn into a signal.

Setting [6] is: exendin 9–39 30 nmol/kg i.p. 15 min prior to IVGTT.

As for “3-(3,5-difluoro-4-((3-methyl-1-phenyl-1H-pyrazol-5-yl)methoxy)phenyl)-2-methylpropanoic acid [Metabolex-36]”, in experiment [1], the “Glucose excursions following oral glucose administration” value is “concentration dependent reduction”; the “Dose at which significantly improved glucose tolerance was observed” value is listed as 30 mg/kg; the “Calculated unbound effective concentration, Ce50” value is 0.6 µM. Moreover, in experiment [2], the “GLP-1 secretion from STC-1 cells” value is recorded as “significantly increased GLP-1 secretion”. Also, in experiment [3], the Basal blood glucose was 6.9 ± 0.2 mM and the “Time after iv glucose bolus up to which insulin levels were significantly elevated” value is “up to 5 minutes”. Further, in experiment [3] (IVGTT), the “Acute insulin response (AIR)” value is “significant increase”; the “Glucose elimination between 1 and 20 min” value was “increased the glucose elimination”. Also, in experiment [3] (setting [6]), the “Acute insulin response when given together with exendin 9–39” value is “reduced to vehicle levels”, the “Agonist-induced increase in insulin secretion after co-administration with exendin 9–39” value was “abolished”, the “Glucose elimination when given together with exendin 9–39” value is listed as “reduced to vehicle levels” and the “Glucose lowering effect in combination with exendin 9–39” value is listed as “abolished”. Further, in experiment [4], the “DMR response after Gαs inhibition” value is “partly blocked”, the “DMR response after Gαi inhibition” value is given as “did not result in any significant decrease” and the “DMR response after Gαq inhibition” value is “only partly reduced”. A half-maximal response in experiment [4] (CHO-hGPR120 cells) (EC50) required 0.57 ± 0.15 µM. For the same molecule, the EC50 in experiment [5] (read-out: β-arrestin EC50, β-arrestin recruitment in U2OS-hGPR120 cells, mean ± SEM) came to 1.4 ± 0.7 µM.
`C#Cc1cc(Oc2cccnc2)cc(N2Cc3ccccc3S2(=O)=O)c1` [AZ13581837, 2-(3-ethynyl-5-(3-pyridyloxy)phenyl)-3H-1,2-benzothiazole 1,1-dioxide]: in experiment [1], the “Glucose excursions following oral glucose administration” value is given as “concentration dependent reduction”; the “Dose at which significantly improved glucose tolerance was observed” value was determined as 18 mg/kg; the “Calculated unbound effective concentration, Ce50” value is 0.02 µM. For the same molecule, the “GLP-1 secretion from STC-1 cells” value in experiment [2] is listed as “significantly increased GLP-1 secretion”. Moreover, in experiment [3], the Basal blood glucose was determined as 7.1 ± 0.3 mM and the “Time after iv glucose bolus up to which insulin levels were significantly elevated” value is given as “up to 10 minutes”. In addition, in experiment [3] (IVGTT), the “Acute insulin response (AIR)” value is on record as “significant increase”; the “Glucose elimination between 1 and 20 min” value is “increased the glucose elimination”. Moreover, the “Agonist-induced increase in insulin secretion after co-administration with exendin 9–39” value in experiment [3] (setting [6]) was “completely abolished”. Moreover, in experiment [3] (exendin 9–39 experiment, agonist alone vs vehicle), the “Insulin secretion in IVGTT (agonist alone)” value is given as “significant increase”. The “Acute insulin secretion in wt mice” value in experiment [3] (female wild type mice, AZ13581837 30 min prior to iv glucose, vs vehicle, p<0.05) is recorded as “significantly increased”. For the same molecule, the “Glucose elimination in wt mice compared to compound treated GPR120 null mice” value in experiment [3] (female wt mice, IVGTT, p<0.05) was “increased”. In experiment [4], the “DMR response after Gαs inhibition” value is “partly blocked”, the “DMR response after Gαi inhibition” value is reported as “did not result in any significant decrease” and the “DMR response after Gαq inhibition” value is reported as “only partly reduced”. Besides, the “Potency relative to Metabolex-36 in DMR response” value in experiment [4] (CHO-hGPR120 cells, fold more potent than Metabolex-36) was “about 100 fold”. Moreover, in experiment [4] (CHO-hGPR120 cells), a half-maximal response (EC50) required 0.0052 ± 0.0006 µM. In experiment [5], this molecule came in with an EC50 of 0.0052 ± 0.0004 µM.

(Values after PMC5716539, “The acute glucose lowering effect of specific GPR120 activation in mice is mainly driven by glucagon-like peptide 1” (PLoS ONE, 2017).)
